Reference: ChEMBL document CHEMBL4715814, “Design, synthesis and biological activity evaluation of novel 4-subtituted 2-naphthamide derivatives as AcrB inhibitors” (2018)
Active and inactive are the calls of the source. The rule behind the calls is not given here. Peptide text beside a SMILES is read from it. * marks the point of attachment. βNA = c1ccc2cc(N*)ccc2c1

How the values were obtained:
Escherichia coli [1] = test: Antibacterial activity against Wild type Escherichia coli BW25113 assessed as inhibition of AcrB efflux pump by mesuring the glucose-induced nile red efflux at 500 uM preincubated with CCCP for 15 mins followed by compound addition after 15 mins nile red added and incubated for 3 hrs in shaker by fluorimetric analysis; assay type: functional, organism-based; conditions: time 195.0 min
Cell membrane [2] = test: Induction of outer membrane permeabilization in wild type Escherichia coli BW25113 assessed as increase in nitrocefin hydrolysis at 512 ug/ml measured for 30 mins in presence of CCCP by spectrophotometry analysis; assay type: subcellular; conditions: dose 512.0 µg/ml
Escherichia coli [3] = test: Potentiation of chloramphenicol-induced antibacterial activity against AcrB deficient Escherichia coli BW25113 assessed as chloramphenicol MIC at 256 ug/ml incubated for 18 hrs under aerobic condition by checkerboard titration assay (reference value: 2 ug/ml); assay type: functional; conditions: dose 256 µg/ml
Escherichia coli [4] = test: Potentiation of TPP-induced antibacterial activity against AcrB deficient Escherichia coli BW25113 assessed as TPP MIC at 256 ug/ml incubated for 18 hrs under aerobic condition by checkerboard titration assay (reference value: 256 ug/ml); assay type: functional; conditions: dose 256 µg/ml
Escherichia coli [5] = test: Potentiation of rifampicin-induced antibacterial activity against wild type Escherichia coli BW25113 assessed as rifampicin MIC at 512 ug/ml incubated for 18 hrs under aerobic condition by checkerboard titration assay (reference value: 16 ug/ml); assay type: functional; conditions: dose 512 µg/ml
Escherichia coli [6] = test: Potentiation of TPP-induced antibacterial activity against wild type Escherichia coli BW25113 assessed as TPP MIC at 512 ug/ml incubated for 18 hrs under aerobic condition by checkerboard titration assay (reference value: 1024 ug/ml); assay type: functional; conditions: dose 512 µg/ml
Escherichia coli [7] = test: Potentiation of TPP-induced antibacterial activity against wild type Escherichia coli BW25113 assessed as TPP MIC at 256 ug/ml incubated for 18 hrs under aerobic condition by checkerboard titration assay (reference value: 1024 ug/ml); assay type: functional; conditions: dose 256 µg/ml
Escherichia coli [8] = test: Potentiation of chloramphenicol-induced antibacterial activity against wild type Escherichia coli BW25113 assessed as chloramphenicol MIC at 512 ug/ml incubated for 18 hrs under aerobic condition by checkerboard titration assay (reference value: 16 ug/ml); assay type: functional; conditions: dose 512 µg/ml
Escherichia coli [9] = test: Potentiation of chloramphenicol-induced antibacterial activity against wild type Escherichia coli BW25113 assessed as chloramphenicol MIC at 256 ug/ml incubated for 18 hrs under aerobic condition by checkerboard titration assay (reference value: 16 ug/ml); assay type: functional; conditions: dose 256 µg/ml
Escherichia coli [10] = test: Potentiation of rifampicin-induced antibacterial activity against wild type Escherichia coli BW25113 assessed as rifampicin MIC at 256 ug/ml incubated for 18 hrs under aerobic condition by checkerboard titration assay (reference value: 16 ug/ml); assay type: functional; conditions: dose 256 µg/ml
Cell membrane [11] = test: Disruption of inner membrane potential in wild type Escherichia coli BW25113 at 512 ug/ml preincubated for 10 mins followed by glucose stimulation and CCCP addition by DiOC2 probe based fluorimetric analysis; assay type: subcellular; conditions: dose 512.0 µg/ml
Escherichia coli [12] = test: Potentiation of erythromycin-induced antibacterial activity against wild type Escherichia coli BW25113 assessed as erythromycin MIC at 512 ug/ml incubated for 18 hrs under aerobic condition by checkerboard titration assay (reference value: 128 ug/ml); assay type: functional; conditions: dose 512 µg/ml
Escherichia coli [13] = test: Potentiation of erythromycin-induced antibacterial activity against wild type Escherichia coli BW25113 assessed as erythromycin MIC at 256 ug/ml incubated for 18 hrs under aerobic condition by checkerboard titration assay (reference value: 128 ug/ml); assay type: functional; conditions: dose 256 µg/ml
Escherichia coli [14] = test: Potentiation of TPP-induced antibacterial activity against AcrB deficient Escherichia coli BW25113 assessed as TPP MIC at 32 ug/ml incubated for 18 hrs under aerobic condition by checkerboard titration assay (reference value: 256 ug/ml); assay type: functional; conditions: dose 32 µg/ml
Escherichia coli [15] = test: Potentiation of chloramphenicol-induced antibacterial activity against AcrB deficient Escherichia coli BW25113 assessed as chloramphenicol MIC at 32 ug/ml incubated for 18 hrs under aerobic condition by checkerboard titration assay (reference value: 2 ug/ml); assay type: functional; conditions: dose 32 µg/ml
Escherichia coli [16] = test: Potentiation of erythromycin-induced antibacterial activity against AcrB deficient Escherichia coli BW25113 assessed as erythromycin MIC at 32 ug/ml incubated for 18 hrs under aerobic condition by checkerboard titration assay (reference value: 32 ug/ml); assay type: functional; conditions: dose 32 µg/ml
Escherichia coli [17] = test: Potentiation of TPP-induced antibacterial activity against wild type Escherichia coli BW25113 assessed as TPP MIC at 128 ug/ml incubated for 18 hrs under aerobic condition by checkerboard titration assay (reference value: 1024 ug/ml); assay type: functional; conditions: dose 128 µg/ml
Escherichia coli [18] = test: Potentiation of chloramphenicol-induced antibacterial activity against wild type Escherichia coli BW25113 assessed as chloramphenicol MIC at 128 ug/ml incubated for 18 hrs under aerobic condition by checkerboard titration assay (reference value: 16 ug/ml); assay type: functional; conditions: dose 128 µg/ml
Escherichia coli [19] = test: Potentiation of rifampicin-induced antibacterial activity against wild type Escherichia coli BW25113 assessed as rifampicin MIC at 128 ug/ml incubated for 18 hrs under aerobic condition by checkerboard titration assay (reference value: 16 ug/ml); assay type: functional; conditions: dose 128 µg/ml
Escherichia coli [20] = test: Potentiation of erythromycin-induced antibacterial activity against wild type Escherichia coli BW25113 assessed as erythromycin MIC at 128 ug/ml incubated for 18 hrs under aerobic condition by checkerboard titration assay (reference value: 128 ug/ml); assay type: functional; conditions: dose 128 µg/ml
Escherichia coli [21] = test: Potentiation of TPP-induced antibacterial activity against AcrB deficient Escherichia coli BW25113 assessed as TPP MIC at 200 ug/ml incubated for 18 hrs under aerobic condition by checkerboard titration assay (reference value: 256 ug/ml); assay type: functional; conditions: dose 200 µg/ml
Escherichia coli [22] = test: Potentiation of chloramphenicol-induced antibacterial activity against AcrB deficient Escherichia coli BW25113 assessed as chloramphenicol MIC at 200 ug/ml incubated for 18 hrs under aerobic condition by checkerboard titration assay (reference value: 2 ug/ml); assay type: functional; conditions: dose 200 µg/ml
Escherichia coli [23] = test: Potentiation of erythromycin-induced antibacterial activity against AcrB deficient Escherichia coli BW25113 assessed as erythromycin MIC at 200 ug/ml incubated for 18 hrs under aerobic condition by checkerboard titration assay (reference value: 32 ug/ml); assay type: functional; conditions: dose 200 µg/ml
Escherichia coli [24] = test: Potentiation of rifampicin-induced antibacterial activity against wild type Escherichia coli BW25113 assessed as rifampicin MIC at 200 ug/ml incubated for 18 hrs under aerobic condition by checkerboard titration assay (reference value: 16 ug/ml); assay type: functional; conditions: dose 200 µg/ml
Escherichia coli [25] = test: Potentiation of TPP-induced antibacterial activity against wild type Escherichia coli BW25113 assessed as TPP MIC at 200 ug/ml incubated for 18 hrs under aerobic condition by checkerboard titration assay (reference value: 1024 ug/ml); assay type: functional; conditions: dose 200 µg/ml
Escherichia coli [26] = test: Potentiation of chloramphenicol-induced antibacterial activity against wild type Escherichia coli BW25113 assessed as chloramphenicol MIC at 200 ug/ml incubated for 18 hrs under aerobic condition by checkerboard titration assay (reference value: 16 ug/ml); assay type: functional; conditions: dose 200 µg/ml
Escherichia coli [27] = test: Potentiation of erythromycin-induced antibacterial activity against wild type Escherichia coli BW25113 assessed as erythromycin MIC at 200 ug/ml incubated for 18 hrs under aerobic condition by checkerboard titration assay (reference value: 128 ug/ml); assay type: functional; conditions: dose 200 µg/ml
Escherichia coli [28] = test: Potentiation of TPP-induced antibacterial activity against wild type Escherichia coli BW25113 assessed as fold reduction in TPP MIC at 256 ug/ml incubated for 18 hrs under aerobic condition by checkerboard titration assay relative to TPP MIC alone; assay type: functional; conditions: dose 256 µg/ml
Escherichia coli [29] = test: Potentiation of TPP-induced antibacterial activity against AcrB deficient Escherichia coli BW25113 assessed as TPP MIC at 512 ug/ml incubated for 18 hrs under aerobic condition by checkerboard titration assay (reference value: 256 ug/ml); assay type: functional; conditions: dose 512 µg/ml
Escherichia coli [30] = test: Potentiation of chloramphenicol-induced antibacterial activity against AcrB deficient Escherichia coli BW25113 assessed as chloramphenicol MIC at 512 ug/ml incubated for 18 hrs under aerobic condition by checkerboard titration assay (reference value: 2 ug/ml); assay type: functional; conditions: dose 512 µg/ml
Escherichia coli [31] = test: Potentiation of chloramphenicol-induced antibacterial activity against wild type Escherichia coli BW25113 assessed as fold reduction in chloramphenicol MIC at 512 ug/ml incubated for 18 hrs under aerobic condition by checkerboard titration assay relative to chloramphenicol MIC alone; assay type: functional; conditions: dose 512 µg/ml
Escherichia coli [32] = test: Potentiation of erythromycin-induced antibacterial activity against AcrB deficient Escherichia coli BW25113 assessed as erythromycin MIC at 512 ug/ml incubated for 18 hrs under aerobic condition by checkerboard titration assay (reference value: 32 ug/ml); assay type: functional; conditions: dose 512 µg/ml

| SMILES | Activity (Escherichia coli [1]) | Activity (Cell membrane [2]) | MIC (Escherichia coli [5]) | MIC (Escherichia coli [6]) | MIC (Escherichia coli [7]) | MIC (Escherichia coli [8]) | MIC (Escherichia coli [9]) | MIC (Escherichia coli [10]) | Activity (Cell membrane [11]) | MIC (Escherichia coli [12]) | MIC (Escherichia coli [13]) | MIC (Escherichia coli [17]) | MIC (Escherichia coli [18]) | MIC (Escherichia coli [19]) | MIC (Escherichia coli [20]) | MIC (Escherichia coli [29]) | MIC (Escherichia coli [30]) | MIC (Escherichia coli [32]) | other results |
| --- | --- | --- | --- | --- | --- | --- | --- | --- | --- | --- | --- | --- | --- | --- | --- | --- | --- | --- | --- |
| O=C(Nc1ccccc1)c1cc(OCc2ccccc2)c2ccccc2c1 | Active | Active | 8 µg/mL | 512 µg/mL | 1020 µg/mL | 16 µg/mL | 16 µg/mL | 16 µg/mL | Active | 128 µg/mL | 128 µg/mL | – | – | – | – | – | – | – | MIC (Escherichia coli [3]): 2 µg/mL; MIC (Escherichia coli [4]): 256 µg/mL |
| CC(C)CCOc1cc(C(=O)NCCc2ccccc2)cc2ccccc12 | inactive | inactive | – | – | 1020 µg/mL | – | 4 µg/mL | 16 µg/mL | inactive | – | 32 µg/mL | 1020 µg/mL | 8 µg/mL | 16 µg/mL | 64 µg/mL | – | – | – | MIC (Escherichia coli [14]): 32 µg/mL; MIC (Escherichia coli [15]): 2 µg/mL; MIC (Escherichia coli [16]): 2 µg/mL |
| N=C(N)NCCC[C@H](NC(=O)[C@@H](N)Cc1ccccc1)C(=O)Nc1ccc2ccccc2c1 [PABETAN] (H-Phe-Arg-βNA) | – | – | – | – | – | – | – | – | – | – | – | – | – | – | – | – | – | – | MIC (Escherichia coli [21]): 256 µg/mL; MIC (Escherichia coli [22]): 2 µg/mL; MIC (Escherichia coli [23]): 16 µg/mL; MIC (Escherichia coli [24]): 2 µg/mL; MIC (Escherichia coli [25]): 256 µg/mL; MIC (Escherichia coli [26]): 2 µg/mL; MIC (Escherichia coli [27]): 16 µg/mL |
| CCCCCCNC(=O)c1cc(OCc2ccccc2)c2ccccc2c1 | – | Active | – | – | 256 µg/mL | – | 4 µg/mL | 4 µg/mL | Active | – | 128 µg/mL | 1020 µg/mL | 8 µg/mL | 16 µg/mL | 128 µg/mL | 256 µg/mL | 2 µg/mL | – | fold change (FC) (Escherichia coli [28]): 4 |
| O=C(Nc1ccccc1C(F)(F)F)c1cc(OCc2ccccc2)c2ccccc2c1 | – | – | – | 1020 µg/mL | 1020 µg/mL | 2 µg/mL | 8 µg/mL | 16 µg/mL | – | 128 µg/mL | 128 µg/mL | – | – | – | – | – | 0.5 µg/mL | 16 µg/mL | fold change (FC) (Escherichia coli [31]): 8 |
| CC(C)CCOc1cc(C(N)=O)cc2ccccc12 | – | – | 16 µg/mL | 256 µg/mL | 512 µg/mL | 4 µg/mL | 8 µg/mL | 16 µg/mL | – | 32 µg/mL | 64 µg/mL | – | – | – | – | 256 µg/mL | 2 µg/mL | 32 µg/mL | – |
